Patent US20230399289A1, “ITACONIC ACID DERIVATIVES” (Sitryx Therapeutics Limited, priority 2020, published 2023)
Structures can show the parent of a compound that is named as a salt. Values belong to the compound of their own block, whether it stands above or below them.

Columns and labels:
hepatocytes [1] = experiment: Hepatocyte stability assay, human; type: in vitro ADME; conditions: 10 μM compound, 0.5×10^6 cells/mL, 60 min
Source text: (§1) Defrosted cryo-preserved hepatocytes (viability>70%) may be used to determine the metabolic stability of a compound via calculation of intrinsic clearance (Clint; a measure of the removal of a compound from the liver in the absence of blood flow and cell binding). Clearance data are particularly important for in vitro work as they can be used in combination with in vivo data to predict the half-life and oral bioavailability of a drug.
(§2) The metabolic stability in hepatocytes assay involves a time-dependent reaction using both positive and negative controls. The cells were pre-incubated at 37° C. and spiked with test compound (and positive control); samples were taken at pre-determined time intervals and analysed to monitor the change in concentration of the initial drug compound over 60 minutes. A buffer incubation reaction (with no hepatocytes present) acted as a negative control and two cocktail solutions, containing compounds with known high and low clearance values (verapamil/7-hydroxycoumarin and propranolol/diltiazem), acted as positive controls. • 1. The assay was run with a cell concentration of 0.5×10^6 cells/mL in Leibovitz buffer. • 2. All compounds and controls were run in duplicate. • 3. Compound concentration was 10 μM. • 4. All compounds and controls were incubated with both cells and buffer to show turnover was due to hepatic metabolism. • 5. All wells on the incubation plate had 326.7 μL of either cells or buffer added. • 6. Prior to assay, cell and buffer-only incubation plates were preincubated for 10 mins at 37° C. • 7. The assay was initiated by adding compounds, 3.3 μL of 1 mM in 10% DMSO-90% Buffer; final DMSO concentration is 0.1%. • 8. Samples were taken at regular timepoints (0, 5, 10, 20, 40, 60 min) until 60 mins. • 9. Sample volume was 40 μL and was added to 160 μL of crash solvent (acetonitrile with internal standard) and stored on ice. • 10. At the end of the assay, the crash plates were centrifuged at 3500 rpm for 20 mins at 4° C. • 11. 80 μL of clear supernatant was removed and mixed with 80 μL of deionised water before being analysed by LC-MS/MS.
(§3) Raw LC-MS/MS data was exported to, and analysed in, Microsoft Excel for determination of intrinsic clearance. The percentage remaining of a compound was monitored using the peak area of the initial concentration as 100%. Intrinsic clearance and half-life values were calculated using a graph of the natural log of percentage remaining versus the time of reaction in minutes. Half-life (min) and intrinsic clearance (Clint in μL min^−1 10^−6 cells) values were calculated using the gradient of the graph (the elimination rate constant, k) and Equations 1 and 2.

hepatocytes [2] = experiment: Hepatocyte stability assay, mouse; type: in vitro ADME; conditions: 10 μM compound, 0.5×10^6 cells/mL, 60 min
Source text: as §1, §2, §3

[3] = system: IL-1β cytokine output from THP-1 cells; experiment: THP-1 AlphaLISA IL-1β cytokine assay; type: cell-based; conditions: Homo sapiens, THP-1, differentiated THP-1 cells, LPS 24 hr then Nigericin 1 hour
Protocol: (§4) Measuring Inhibitory Effects on IL-1β and IL-6 Cytokine Output from THP-1s
(§5) The cytokine inhibition profiles of compounds of formula (I) were determined in a differentiated THP-1 cell assay. All assays were performed in RPMI-1640 growth medium (Gibco), supplemented with 10% fetal bovine serum (FBS; Gibco), 1% penicillin-streptomycin and 1% sodium pyruvate unless specified otherwise. The IL-1β and IL-6 cytokine inhibition assays were each run in a background of differentiated THP-1 cells as described below. All reagents described were from Sigma-Aldrich unless specified otherwise. Compounds were prepared as 10 mM DMSO stocks.
(§6) THP-1 cells were expanded as a suspension up to 80% confluence in appropriate growth medium. Cells were harvested, suspended, and treated with an appropriate concentration of phorbol 12-myristate 13-acetate (PMA) over a 72 hr period (37° C./5% CO2).
(§7) Following 72 hrs of THP-1 cell incubation, cellular medium was removed and replaced with fresh growth media containing 1% of FBS. Working concentrations of compounds were prepared separately in 10% FBS treated growth medium and pre-incubated with the cells for 30 minutes (37° C./5% CO2). Following the 30 minute compound pre-incubation, THP-1s were treated with an appropriate concentration of LPS and the THP-1s were subsequently incubated for a 24 hr period (37° C./5% CO2). An appropriate final concentration of Nigericin was then dispensed into the THP-1 plates and incubated for 1 hour (37° C./5% CO2) before THP-1 supernatants were harvested and collected in separate polypropylene 96-well holding plates.
(§8) Reagents from each of the […] and IL-6 commercial kits (Perkin Elmer) were prepared and run according to the manufacturer's instructions. Subsequently, fluorescence signal detection in a microplate reader was measured (EnVision® Multilabel Reader, Perkin Elmer).
(§9) Percentage inhibition was calculated per cytokine by normalising the sample data to the high and low controls used within each plate (+/−LPS respectively). Percentage inhibition was then plotted against compound concentration and the 50% inhibitory concentration (IC50) was determined from the resultant concentration-response curve.

[4] = Hepatocyte stability assay, human; type: in vitro ADME; conditions: cryopreserved hepatocytes, 10 μM compound, 0.5×10^6 cells/mL, 60 min, read-out: T½
Source text: as §1, §2, §3

[5] = Hepatocyte stability assay, mouse; type: in vitro ADME; conditions: cryopreserved hepatocytes, 10 μM compound, 0.5×10^6 cells/mL, 60 min, read-out: T½
Source text: as §1, §2, §3

[6] = system: IL-6 cytokine output from THP-1 cells; experiment: THP-1 AlphaLISA IL-6 cytokine assay; type: cell-based; conditions: Homo sapiens, THP-1, differentiated THP-1 cells, LPS 24 hr then Nigericin 1 hour
Protocol: as §4, §5, §6, §7, §8, §9

[7] = system: NRF2 (nuclear factor erythroid 2-related factor 2); experiment: NRF2 +/−GSH activation assay (DiscoverX PathHunter NRF2 translocation kit, U2OS cells); type: cell-based; conditions: Homo sapiens; for Emax: U2OS, normalised to dimethyl fumarate high control; for EC50: U2OS PathHunter cells, 6 hours
[8] = +GSH, 30 minute compound-GSH pre-incubation

SMILES: C=C(CC(=O)OCCCCCCCC)C(=O)O [4-octyl itaconate, reference compound]
CIint (hepatocytes [1]): 401 μL min^−1 10^−6 cells | T½ (hepatocytes [1]): 4 min | CIint (hepatocytes [2]): 351 μL min^−1 10^−6 cells | T½ (hepatocytes [2]): 4 min

SMILES: C=C(CC(=O)OC1(c2cccc(Cl)c2Cl)CCC1)C(=O)OCC(=O)O [Example 7, 2-((4-(1-(2,3-dichlorophenyl)cyclobutoxy)-2-methylene-4-oxobutanoyl)oxy)acetic acid]
IC50 [3]: 17.4 µM | half-life at 10 μM [4]: 151 min | CIint (hepatocytes [1]): 10 μL min^−1 10^−6 cells | half-life at 10 μM [5]: 18 min | CIint (hepatocytes [2]): 107 μL min^−1 10^−6 cells

SMILES: C=C(CC(=O)OC1(c2cc(F)c(F)c(F)c2)CCC1)C(=O)OCC(=O)O [Example 14, 2-((2-methylene-4-oxo-4-(1-(3,4,5-trifluorophenyl)cyclobutoxy)butanoyl)oxy)acetic acid]
IC50 [3]: 19.9 µM

SMILES: C=C(CC(=O)OC1(c2cc(Cl)cc(C(F)(F)F)c2)CCC1)C(=O)OCC(=O)O [Example 15, 2-((4-(1-(3-chloro-5-(trifluoromethyl)phenyl)cyclobutoxy)-2-methylene-4-oxobutanoyl)oxy)acetic acid]
IC50 [3]: 8.6 µM

SMILES: C=C(CC(=O)OC1(c2ccc(C(F)(F)F)c(Cl)c2)CCC1)C(=O)OCC(=O)O [Example 16, 2-((4-(1-(3-chloro-4-(trifluoromethyl)phenyl)cyclobutoxy)-2-methylene-4-oxobutanoyl)oxy)acetic acid]
IC50 [3]: 4.9 µM | half-life at 10 μM [4]: 209 min | CIint (hepatocytes [1]): 7 μL min^−1 10^−6 cells | half-life at 10 μM [5]: 25 min | CIint (hepatocytes [2]): 61 μL min^−1 10^−6 cells

SMILES: C=C(CC(=O)OC1(c2cc(Cl)c(F)c(Cl)c2)CCC1)C(=O)OCC(=O)O [Example 17, 2-((4-(1-(3,5-dichloro-4-fluorophenyl)cyclobutoxy)-2-methylene-4-oxobutanoyl)oxy)acetic acid]
IC50 [3]: 4.9 µM | half-life at 10 μM [4]: 188 min | CIint (hepatocytes [1]): 8 μL min^−1 10^−6 cells | half-life at 10 μM [5]: 21 min | CIint (hepatocytes [2]): 73 μL min^−1 10^−6 cells

SMILES: C=C(CC(=O)OC1(c2cc(Cl)c(OC)c(Cl)c2)CCC1)C(=O)OCC(=O)O [Example 18, 2-((4-(1-(3,5-dichloro-4-methoxyphenyl)cyclobutoxy)-2-methylene-4-oxobutanoyl)oxy)acetic acid]
IC50 [3]: 9.9 µM | half-life at 10 μM [4]: 109 min | CIint (hepatocytes [1]): 13 μL min^−1 10^−6 cells | half-life at 10 μM [5]: 26 min | CIint (hepatocytes [2]): 58 μL min^−1 10^−6 cells

SMILES: C=C(CC(=O)OC1(c2cc(F)c(C(F)(F)F)c(F)c2)CCC1)C(=O)OCC(=O)O [Example 19, 2-((4-(1-(3,5-difluoro-4-(trifluoromethyl)phenyl)cyclobutoxy)-2-methylene-4-oxobutanoyl)oxy)acetic acid]
IC50 [3]: 4.4 µM | half-life at 10 μM [4]: 187 min | CIint (hepatocytes [1]): 8 μL min^−1 10^−6 cells | half-life at 10 μM [5]: 23 min | CIint (hepatocytes [2]): 66 μL min^−1 10^−6 cells

SMILES: C=C(CC(=O)OC1(c2ccc(C(F)(F)F)cc2)CCC1)C(=O)O[C@@H](CC(=O)O)C(F)(F)F [Example 21, (S)-4,4,4-trifluoro-3-((2-methylene-4-oxo-4-(1-(4-(trifluoromethyl)phenyl)cyclobutoxy)butanoyl)oxy)butanoic acid]
IC50 [3]: 1 µM | IC50 [6]: 0.9 µM | Emax ([7]; +GSH): 53% | Emax ([7]; −GSH): 170% | EC50 [7, 8]: 5.7 µM | EC50 ([7]; −GSH): 1.7 µM

SMILES: C=C(CC(=O)OC1(c2ccc(C(F)(F)F)cc2)CCC1)C(=O)O[C@H](CC(=O)O)C(F)(F)F [Example 23, (R)-4,4,4-trifluoro-3-((2-methylene-4-oxo-4-(1-(4-(trifluoromethyl)phenyl)cyclobutoxy)butanoyl)oxy)butanoic acid]
IC50 [3]: 1.5 µM | IC50 [6]: 1.2 µM | Emax ([7]; +GSH): 54% | Emax ([7]; −GSH): 141% | EC50 [7, 8]: 5.3 µM | EC50 ([7]; −GSH): 2.3 µM

SMILES: C=C(CC(=O)OC1(Cc2ccc(Cl)cc2)CCC1)C(=O)OCC(=O)O [Example 24, 2-((4-(1-(4-chlorobenzyl)cyclobutoxy)-2-methylene-4-oxobutanoyl)oxy)acetic acid]
IC50 [3]: 14.5 µM | IC50 [6]: 11.3 µM | Emax ([7]; +GSH): 119% | Emax ([7]; −GSH): 194% | EC50 [7, 8]: 28.3 µM | EC50 ([7]; −GSH): 29.6 µM

IC50 [3]: 17.4 µM | IC50 [6]: 15.9 µM
SMILES: C=C(CC(=O)OC1(c2ccc(C(F)(F)F)cc2)CCCC1)C(=O)OCC(=O)O [Example 25, 2-((2-methylene-4-oxo-4-((1-(4-(trifluoromethyl)phenyl)cyclopentyl)oxy)butanoyl)oxy)acetic acid]

SMILES: C=C(CC(=O)OC1(c2ccc(-c3ccc(F)cc3)cc2)CCC1)C(=O)OCC(=O)O [Example 26, 2-((4-(1-(4′-fluoro-[1,1′-biphenyl]-4-yl)cyclobutoxy)-2-methylene-4-oxobutanoyl)oxy)acetic acid]
IC50 [3]: 46.9 µM | IC50 [6]: 3.9 µM

IC50 [3]: 16.4 µM | IC50 [6]: 14.1 µM
SMILES: C=C(CC(=O)OC1(Cc2ccc(C(F)(F)F)cc2)CC1)C(=O)OCC(=O)O [Example 27, 2-((2-methylene-4-oxo-4-(1-(4-(trifluoromethyl)benzyl)cyclopropoxy)butanoyl)oxy)acetic acid]

SMILES: C=C(CC(=O)OC1(C#Cc2ccc(C(F)(F)F)cc2)CCC1)C(=O)OCC(=O)O [Example 28, 2-((2-methylene-4-oxo-4-(1-((4-(trifluoromethyl)phenyl)ethynyl)cyclobutoxy)butanoyl)oxy)acetic acid]
IC50 [3]: 11.3 µM | IC50 [6]: 3.3 µM

IC50 [3]: 43.2 µM | IC50 [6]: 45.2 µM
SMILES: C=C(CC(=O)OC1(c2ccc(C(F)(F)F)cc2)COC1)C(=O)OCC(=O)O [Example 29, 2-((2-methylene-4-oxo-4-((3-(4-(trifluoromethyl)phenyl)oxetan-3-yl)oxy)butanoyl)oxy)acetic acid]

SMILES: C=C(CC(=O)OC1(c2ccc(C(F)(F)F)cc2)CC(F)(F)C1)C(=O)OCC(=O)O [Example 31, 2-((4-(3,3-difluoro-1-(4-(trifluoromethyl)phenyl)cyclobutoxy)-2-methylene-4-oxobutanoyl)oxy)acetic acid]
IC50 [3]: 14.4 µM | IC50 [6]: 16.5 µM | Emax ([7]; +GSH): 108% | Emax ([7]; −GSH): 182% | EC50 [7, 8]: 30.8 µM | EC50 ([7]; −GSH): 21.7 µM

EC50 [7, 8]: > 100 µM | EC50 ([7]; −GSH): 6 µM
SMILES: COC(=O)/C=C/C(=O)OC [dimethyl fumarate, reference compound]
Emax ([7]; +GSH): 19% | Emax ([7]; −GSH): 100%

IC50 [3]: > 100 µM | IC50 [6]: > 100 µM
SMILES: C=C(CC(=O)OC)C(=O)OC [dimethyl itaconate, reference compound]
